For data set [1] the following is noted: for recrystallization of non-crystalline material upon heating (XRPD): heated at ~110° C. for 10 minutes.
For data set [2] the following is noted: Vapor stress, RT.
Text: The sample was then centrifuged, while still warm, and the mother liquor was decanted. The isolated solids were air-dried and analyzed by XRPD.
Data set [3] is described as follows: Dynamic vapor sorption (DVS) with XRPD of the post-DVS sample. Type of data set: physicochemical. Conditions: for hygroscopicity based on DVS data: 5 to 95% RH; for moisture gain by DVS: adsorption 5 to 95% RH; for behaviour on desorption / form change by XRPD of post-DVS sample: desorption 95 to 5% RH. In short, it runs like this:
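Sample (about 2-25 mg depending on run) held at 25° C. and stepped in 10% RH increments 5→95% RH (adsorption) then 95→5% RH (desorption). Each step advanced at 0.01% weight change (in 5 min for later runs) or after a maximum of 1 h or 90 min; percent weight change reported.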

For data set [4] the following is noted: 93% RH, RT.
Where [5] appears, read: 25° C., listed as Non-crystalline 2C-B tartrate.
[6] abbreviates: 25° C., listed as non-crystalline 2C-B tartrate.

Each structure is given as a SMILES string. “Also recorded” adds a separate entry of the source. Where two headings read alike, the source gives them in different places.

As for `COc1cc(CCN)c(OC)cc1Br.O=C(O)C(O)C(O)C(=O)O` [non-crystalline 2C-B Tartrate, 4-bromo-2,5-dimethoxyphenethylamine (2C-B) tartrate], the “XRPD result after heat stress” value in data set [1] (60° C., 9 d) is given as “NC + br pk (23°)”; in data set [1] (110° C., 10 min.), “Tartrate (Form 1) +”. Moreover, the “recrystallization of non-crystalline material upon heating (XRPD)” value in data set [1] was “recrystallizes to Tartrate (Form 1) upon heating; also recorded: crystallized to 2C-B Tartrate (Form 1)”; in data set [1] (listed as non-crystalline tartrate), “crystallization to Tartrate (Form 1) was observed by XRPD”. The “XRPD result after vapor stress” value in data set [2] (EtOH), in data set [2] (H2O) and in data set [2] (acetone) was “Tartrate (Form 1)” each time. In addition, the “hygroscopicity based on DVS data” value in data set [3] (setting [5]) and in data set [3] (setting [6]) was “hygroscopic” each time. Moreover, the “moisture gain by DVS” value in data set [3] (setting [5]) and in data set [3] (setting [6]) was 11.7% in each case. The “moisture gain by DVS above 55% RH” value in data set [3] (above 55% RH) is listed as 9.7%. In addition, the “behaviour on desorption / form change by XRPD of post-DVS sample” value in data set [3] (listed as Non-crystalline 2C-B tartrate) is “remained non-crystalline”; in data set [3] (listed as non-crystalline 2C-B tartrate) it was “remains non-crystalline”. Moreover, in data set [3] (desorption, 95-5% RH, 25° C.), the “DVS desorption weight loss, 95-5% RH” value is 95-5% RH: 12.3% loss. Further, in data set [3] (solids after DVS cycle, NC = non-crystalline, br pk = broad peak), the “post-DVS XRPD” value is given as “NC + br pk (25°)”. Also, the “DVS sorption, weight gain 5-55% RH” value in data set [3] (sorption, 5-55% RH, 25° C.) was 5-55% RH: 2.0% gain. Also, the “DVS sorption total gain” value in data set [3] (sorption, 5-95% RH, 25° C.) is listed as “Total gain: 11.7%”. In addition, the “DVS sorption, weight gain 55-95% RH” value in data set [3] (sorption, 55-95% RH, 25° C.) is reported as 55-95% RH: 9.7% gain. Moreover, in data set [4], the “XRPD result after humidity stress” value is on record as “Tartrate (Form 1)”.

(Values after patent publication US20230150920A1, “SALTS AND SOLID FORMS OF 4-BROMO-2,5-DIMETHOXYPHENETHYLAMINE” (priority 2021, published 2023).)
